Source: ChEMBL document CHEMBL1201862, “PubChem BioAssay data set” (2004)
Calls of active or inactive are those of the source.

Tests used:
Format in all cases: functional
[1] = target: T1, Endoribonuclease toxin MazF (Escherichia coli K-12, UniProt P0AE70); test: MazF toxin RNase activators, dose response, biochemical, fluorescence, single-stranded RNA substrate, uHTS hits (AID 588481)
T1 sequence (P0AE70 whole entry): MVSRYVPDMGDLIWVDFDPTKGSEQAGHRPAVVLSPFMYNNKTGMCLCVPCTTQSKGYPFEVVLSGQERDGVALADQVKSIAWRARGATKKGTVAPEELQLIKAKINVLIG

[2] = target: T1, Endoribonuclease toxin MazF; test: fluorescent RNA oligo signal without MazF, dose response, counter-screen for MazEF activator project, biochemical, fluorescence, single-stranded RNase substrate (AID 588502)
[3] = target: T2, Type-1 angiotensin II receptor (Homo sapiens, UniProt P30556); test: AT1 receptor antagonists, dose response, selectivity assay for APJ receptor antagonist project, cell-based, uHTS hits (AID 463214);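 also: antagonist potency against angiotensin II stimulated AT1 response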
T2 sequence (P30556 whole entry): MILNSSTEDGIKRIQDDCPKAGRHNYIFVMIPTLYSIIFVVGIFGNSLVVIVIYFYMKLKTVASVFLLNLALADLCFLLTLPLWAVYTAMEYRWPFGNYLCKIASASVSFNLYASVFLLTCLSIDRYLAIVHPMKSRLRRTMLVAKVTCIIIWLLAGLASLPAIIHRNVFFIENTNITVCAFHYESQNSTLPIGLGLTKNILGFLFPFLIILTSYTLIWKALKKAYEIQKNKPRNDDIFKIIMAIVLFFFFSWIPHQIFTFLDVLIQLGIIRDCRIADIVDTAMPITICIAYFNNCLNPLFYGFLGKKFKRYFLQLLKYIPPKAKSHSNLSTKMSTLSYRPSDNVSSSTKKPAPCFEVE

Beta-galactosidase = Beta-galactosidase (Escherichia coli, UniProt Q8VNN2); test: PubChem AID 485352
Chain of Beta-galactosidase (Q8VNN2 whole entry): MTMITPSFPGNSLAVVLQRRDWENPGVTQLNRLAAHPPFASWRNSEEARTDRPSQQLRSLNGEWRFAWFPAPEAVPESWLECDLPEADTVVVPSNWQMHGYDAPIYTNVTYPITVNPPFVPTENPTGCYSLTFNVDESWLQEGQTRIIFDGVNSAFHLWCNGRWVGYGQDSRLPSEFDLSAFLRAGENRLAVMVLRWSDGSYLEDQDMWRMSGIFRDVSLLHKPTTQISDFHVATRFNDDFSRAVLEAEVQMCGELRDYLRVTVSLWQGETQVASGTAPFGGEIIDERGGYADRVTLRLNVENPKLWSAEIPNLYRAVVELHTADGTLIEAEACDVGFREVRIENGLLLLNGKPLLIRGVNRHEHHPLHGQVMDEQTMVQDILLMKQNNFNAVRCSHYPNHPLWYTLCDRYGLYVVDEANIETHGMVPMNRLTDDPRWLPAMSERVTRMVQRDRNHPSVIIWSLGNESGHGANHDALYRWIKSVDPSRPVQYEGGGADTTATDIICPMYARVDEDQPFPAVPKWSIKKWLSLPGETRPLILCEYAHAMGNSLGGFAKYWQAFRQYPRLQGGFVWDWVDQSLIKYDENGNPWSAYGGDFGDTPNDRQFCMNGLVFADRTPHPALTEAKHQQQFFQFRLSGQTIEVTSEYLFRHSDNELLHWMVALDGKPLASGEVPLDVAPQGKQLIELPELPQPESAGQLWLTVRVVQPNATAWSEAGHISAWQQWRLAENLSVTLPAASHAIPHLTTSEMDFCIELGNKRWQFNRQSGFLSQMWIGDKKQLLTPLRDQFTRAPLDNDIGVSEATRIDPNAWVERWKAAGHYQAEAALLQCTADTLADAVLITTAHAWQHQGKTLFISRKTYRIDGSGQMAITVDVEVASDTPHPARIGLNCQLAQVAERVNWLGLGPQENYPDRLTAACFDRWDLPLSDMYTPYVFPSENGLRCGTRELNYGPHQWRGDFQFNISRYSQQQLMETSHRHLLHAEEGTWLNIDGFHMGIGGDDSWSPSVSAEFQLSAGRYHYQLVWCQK

| Structure (SMILES) | EC50 [1] | EC50 [2] | IC50 [3] | EC50 (Beta-galactosidase) |
| --- | --- | --- | --- | --- |
| Cc1cc(OCC(=O)NCc2ccc(S(N)(=O)=O)cc2)c2c3c(c(=O)oc2c1)CCC3 | > 99 µM (inactive) | > 99 µM (inactive) | – | – |
| O=C(CCC(=O)OCC(=O)c1cccc([N+](=O)[O-])c1)Nc1cccc(Cl)c1Cl | – | – | 34.2 µM (not active) | > 40 µM (inactive) |
